Data taken from US11518759B1, “Protacs based on VHL ligand targeting coronavirus 3CL protease and preparation method and application thereof” (SHAANXI PANLONG PHARMACEUTICAL CO., LTD., priority 2022, dated 2022).
Read-outs that look alike come from different tables or passages of the source.

How the values were obtained:
SARS-CoV-2 3CL^pro [1] = biological target: T1, SARS-CoV-2 3CL^pro (Severe acute respiratory syndrome coronavirus 2 (2019-nCoV) (SARS-CoV-2), UniProt P0DTD1); assay: biochemical; conditions: FRET
SARS-CoV-2 3CL^pro [2] = biological target: T1, SARS-CoV-2 3CL^pro; type: cell-based; conditions: 24 h, Western Blot

Cc1ncsc1-c1ccc(CNC(=O)[C@@H]2C[C@@H](O)CN2C(=O)[C@@H](NC(=O)COCCOCCn2cc(Cn3c(=O)[nH]/c(=N\c4cc5cn(C)nc5cc4Cl)n(Cc4cc(F)c(F)cc4F)c3=O)nn2)C(C)(C)C)cc1 [Compound 8]
< 100 nM: IC50 (SARS-CoV-2 3CL^pro [1]; SARS-CoV-2 3CLpro 0.5 μM, substrate 20 μM, class symbols, read-out: IC50) | IC50 (SARS-CoV-2 3CL^pro [1]; bound stated, read-out: IC50 values on 3CL^pro) | DC50 (SARS-CoV-2 3CL^pro [2]; HEK293E cells transfected with 3CLpro plasmid, class symbols) | DC50 (SARS-CoV-2 3CL^pro [2]; read-out: DC50 values for 3CL^pro, HEK293E cells, bound stated)
